Data on three compounds can be found in US5192799A, “Coumaran group containing amine compounds and their acid addition salts and quaternary ammonium salts and the use thereof as anti arrhythmic agents and as psychotropic agents” (Mitsui Petrochemical Industries, Ltd., priority 1987, dated 1993).

A value given as a limit tells only on which side of the number the result lay.

One data set has as its system Purkinje fiber. Description: Effect on APD (APD75, field-stimulated right ventricular free wall). In kind it is cell-based, adult mongrel dog. Conditions: Canis lupus familiaris, purkinje, 20 min, 20 minutes incubation, 37° C., 1 Hz, control before drug = 100%, read-out: APD75 % (percent change in APD75). The method, boiled down:
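Right ventricular free wall from pentobarbital-anaesthetized adult mongrel dog, held in Tyrode's solution at 37° C. with 1 Hz field stimulation. Purkinje fiber action potentials recorded by intracellular glass microelectrodes; APD75 measured after 20 minutes drug perfusion, expressed as percent change versus pre-drug control (100%).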

For data set [1], the system named is right ventricle (effective refractory period). Description: Activity on ERP of the right ventricle. In kind it is in vivo, adult mongrel dog. The settings on record: Canis lupus familiaris, iv, ERP before drug = 100%, read-out: ERP % (ERP prolonging activity). The method, boiled down:
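Anaesthetized open-chest mongrel dogs, right ventricle paced at 400 msec interval (4 msec, twice diastolic threshold) after alcohol ablation of sinus pacemaker. ERP defined by loss of response to first stimulus of a 10-stimulus train; drug given intravenously or intraduodenally, ERP expressed as % of pre-dose.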

A further data set deals with atrial fibrillation. Description: Atrial fibrillation model. It is filed as in vivo, mongrel dog. Conditions: dose of 0.3 to 3 mg/kg or 1 to 10 mg/kg. An excerpt: Furthermore, the anaethetized dog was cut open at the chest. Bipolar electrodes were sutured to the right atrial surface, and stimulation electrodes were attached to the vagus nerves at both sides of the cervical region. Atrial fibrillation was induced by the method of Goldberger et al. A. L. Goldberger et al.: […] Further, the anaethetized dog was cut open at the chest. Left anterior descending coronary artery was ligated, and ninety minutes later, reperfused to prepare a myocardial infarction which was liable to develop tachycardia. At that time, a bipolar plunge electrode was placed in the interventricular septum near the ligated site. Several days after the operation, programmed electrical stimulation was applied to induce tachycardia. The effect of the drug to cause disappear of tachycardia was examined. In an anaethetized and open-chested mongrel dog, bipolar electrodes (silver and silver-silver chloride electrodes) were sutured respectively to the right atrium for stimulation and recording. The vagus nerves on both sides of the cervical region were isolated and cut, and stimulation electrodes were attached to the peripheral end. The atrial fibrillation was induced in accordance with the method of Goldberger et al. After cardiac arrest induced by stimulating the vagus nerves, electrical stimulation was applied to the right atria at a high frequency.

For another data set, the system named is mice. Description: in vivo. Conditions: p.o., 24 hours after administration, male ddY mice; 1440 min. How it is done: (§1) By using male ddY-strain 5-week old mice (3 to 4 per group), the compounds of general formula (1) were each administered orally or intraperitoneally as a solution in saline or as a suspension in methyl cellulose, and 24 hours after the administration, the toxicity of the compounds was evaluated.

A further data set in a line: in vivo. The settings on record: mouse, in vivo, po. How it is done: as §1
A further data set concerns the target T1, dopamine 2 receptor (Rattus norvegicus, UniProt P61169).
T1 construct: membrane fractions prepared from the brain a Wistarstrain male rat; from tissue; host or cells: rat brain striatum (Wistar, male), membrane fraction
Description: [3H]spiperone binding assay (affinity for dopamine 2 receptor). Also noted: species or system Wistar-strain male rat. The settings on record: rat striatal membranes, 0.5 nM [3H] spiperone, 37° C., 10 minutes. How it is done: (§2) Striatal membranes fractions were prepared from a rat brain, and the affinity of the compounds of this invention on dopamine 2 receptors was determined by using [^3 H] spiperone assay from membranes fractions as an index. Moreover, frontal cortex membranes were prepared from a rat brain, and the affinity of the test drugs on serotonine 2 receptor was determined by using [^3 H] ketenserin binding assay. It was shown that the compounds of general formula (1) of the invention have marked anti-dopamine activity and anti-serotonine activity.
[^3 H]spiperone binding assay
The affinity of the compounds of this invention to the dopamine 2 receptor was determined on the basis of the ability to substitute [^3 H] spiperone from stratal membrane fractions prepared from the brain a Wistarstrain male rat.
The rat was decapitated, and the brain was obtained. The striatum was homogenized in 40 volumes of 50 mM Tris-HCl buffer (pH 7.6), and then centrifuged. The pellets were again homogenized in 50 volumes of the same buffer, and used in a binding test. The binding test was conducted by the following procedure.
The stria (original tissue weight 20 mg/ml), 100 microliters of a test drug and 0.5 nM of [^3 H] spiperone were incubated at 37° C. for 10 minutes in 50 mM Tris-HCl buffer (pH 7.6). Then, the reaction mixture was suction-filtered through a glass fiber filter (Watmann GF/B) and washed with a buffer three times.
The filter was put in a scintillation cocktail (ACSII, Amersham Co.), and after mixing, left to stand overnight. The radioactivity held on the filter was measured by a liquid scintillation counter. The nonspecific binding was measured in the presence of 1 μM of (+) butaclamol. The concentration of the test drug which inhibited 50% of a specific binding was determined from the graph and defined as IC50. Ki was calculated from the following equation. [formula]

A further data set deals with T2, serotonine 2 receptor (Rattus norvegicus, UniProt P14842).
T2 construct: frontal cortex fraction prepared from the brain of a Wistar male rat; from tissue; host or cells: rat brain frontal cortex (Wistar, male), membrane fraction
T2 sequence (P14842 whole entry): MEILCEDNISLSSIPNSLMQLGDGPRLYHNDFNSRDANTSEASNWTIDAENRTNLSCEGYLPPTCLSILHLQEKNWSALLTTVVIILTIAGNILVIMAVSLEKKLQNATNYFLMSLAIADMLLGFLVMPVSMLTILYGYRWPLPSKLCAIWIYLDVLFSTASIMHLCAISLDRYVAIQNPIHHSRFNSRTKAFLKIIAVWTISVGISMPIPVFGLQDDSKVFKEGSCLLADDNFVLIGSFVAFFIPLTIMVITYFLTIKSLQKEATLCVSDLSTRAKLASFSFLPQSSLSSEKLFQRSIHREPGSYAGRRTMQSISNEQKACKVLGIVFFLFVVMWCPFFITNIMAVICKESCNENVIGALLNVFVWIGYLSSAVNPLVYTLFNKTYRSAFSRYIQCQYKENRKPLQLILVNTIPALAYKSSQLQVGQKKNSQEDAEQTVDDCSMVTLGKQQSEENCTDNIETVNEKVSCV
Description: [3H]ketanserin binding assay (affinity for serotonine 2 receptor). Also noted: species or system Wistar male rat. Conditions: rat frontal cortex, 1 nM [3H] ketanserin, 37° C., 10 minutes. How it is done:
as §2
[^3 H] ketanserin binding assay
The affinity of the compound of the invention was determined on the basis of the ability to substitute [^3 H] ketanserin from a frontal cortex fraction prepared from the brain of a Wistar male rat.
The rat was decapitated, and the brain was obtained. The frontal cortex was homogenized in 40 volumes of 50 mM Tris-HCl buffer (pH 7.6), and then centrifuged. The pellets were again homogenized in 100 volumes of the same buffer, and used in a binding test. The binding test was conducted by the following procedure.
The frontal cortex (original tissue weight 1 mg/ml), 100 microliters of a test drug and 1 nM of [^3 H] ketanserin were incubated at 37° C. for 10 minutes in 50 mM Tris-HCl buffer (pH 7.6). Then, the reaction mixture was suction-filtered through a glass fiber filter (Watmann GF/B) and washed with a buffer three times.
The filter was put in a scintillation cocktail (ACSII, Amersham Co.), and after mixing, left to stand overnight. The radioactivity held on the filter was measured by a liquid scintillation counter. The nonspecific binding was measured in the presence of 1 μM of methysergide. The concentration of the test drug which inhibited 50% of a specific binding was determined from the graph and defined as IC5. Ki was calculated from the following equation. [formula]

For data set [2], the system named is Apomorphine-induced climbing of mice. The data set can be described thus: Apomorphine-induced climbing (anti-DA activity). It is filed as in vivo, ddY-strain male mice. The source says:
(§3) The effects of the compounds of general formula (1) on the apomorphine-induced climbing behavior of mice (i.e. anti-dopamine activity) and the effects of the test drugs of the invention on the quipazine-induced head twitching of mice (i.e. anti-serotonine activity) were also examined. It was made clear that the compounds of this invention represented by general formula (1) have marked anti-dopamine activity and anti-serotonine activity both in vivo and in vitro, and have potentiality as an anti-psychotic agent, an anti-depressant, an antianxiety agent, a sedative or as an anti-dementia agent.
(§4) By using 5 week old ddY-strain male mice (10 per group), the anti-dopamine (anti-DA hereinafter) and anti-serotonine (anti-5-HT hereinafter) activities were examined by the following procedures. All does of test drugs were adjusted to 1 mg/ml. They were each suspended in 0.5% carboxymethyl cellulose (CMC)/saline so that their volume administered was 0.1 ml/10 g. The suspension was administered intraperitoneally.
1. Effect of apomorphine on the climbing behavior (anti-DA activity):
Apomorphine (3 mg/kg) was subcutaneously administered 30 minutes after the intraperitoneal administration of each test drug, and 20 minutes later, the climbing time of each mouse was measured.

Data set [3] concerns Quipazine-induced head twitching of mice. The data set can be described thus: Quipazine-induced head twitching (anti-5-HT activity). It is filed as in vivo, ddY-strain male mice.
Excerpt: as §3, §4
2. Effect of quipazine on the head twitch (anti-5-HT activity):
Quipazine (3 mg/kg) was administered intraperitoneally 30 minutes after the intraperitoneal administration of each test drug. After the lapse of 10 minutes, 20 minutes and 30 minutes from then, the number of head twitchings of each mouse which occurred for 2 minutes was counted.

T1 sequence (P61169 whole entry): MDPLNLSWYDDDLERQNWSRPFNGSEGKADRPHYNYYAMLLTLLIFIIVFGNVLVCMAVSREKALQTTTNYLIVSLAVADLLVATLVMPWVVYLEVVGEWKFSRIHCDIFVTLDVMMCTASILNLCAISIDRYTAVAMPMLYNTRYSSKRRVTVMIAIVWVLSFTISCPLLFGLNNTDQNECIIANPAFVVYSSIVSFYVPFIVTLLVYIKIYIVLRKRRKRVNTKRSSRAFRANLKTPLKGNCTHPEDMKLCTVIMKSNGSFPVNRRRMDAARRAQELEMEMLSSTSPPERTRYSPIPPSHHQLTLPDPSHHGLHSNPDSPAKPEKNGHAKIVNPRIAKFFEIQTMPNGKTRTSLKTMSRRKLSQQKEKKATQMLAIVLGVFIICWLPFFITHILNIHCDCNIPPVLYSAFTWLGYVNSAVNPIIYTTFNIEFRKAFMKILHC

Turning to `O=C1COc2cc(OCCCN3CCC(c4ccccc4)CC3)ccc21` [Compound 1139], the activation at 1 µg/mL with Purkinje fiber (dose 1 μg/ml) was found to be 33%. In the data set with Purkinje fiber (dose 3 μg/ml), the activation at 3 µg/mL stood at 55%. The activation at 10 µg/mL in the data set with Purkinje fiber (dose 10 μg/ml) was determined as 65%. The change in vivo at 0.3 mg/kg in data set [1] (0.3 mg/kg i.v.) turned out to be 5%. Moreover, the change in vivo at 1 mg/kg in [1] (1 mg/kg i.v.) is 11%. Besides, in the data set with atrial fibrillation, the “disappearance of atrial fibrillation” value is given as “could cause disappearance fibrillation”. Further, the LD50 p.o. with mice is given as > 1,000 mg/kg.
Regarding `O=C1COc2cc(OCCCN3CCC(c4ccccc4)CC3)ccc21` [Compound 1140], the LD50 p.o. in the data set with mice was > 300 mg/kg.
For `O=C1COc2cc(OCCCN3CCC(C(=O)c4ccc(F)cc4)CC3)ccc21` [Compound 1236], the LD50 at 24 h in the data set “in vivo” is < 300 mg/kg. The Ki is 122 nM on dopamine 2 receptor and 9.1 nM at serotonine 2 receptor. Further, the “Percent inhibition of apomorphine-induced climbing” value in data set [2] (1 mg/kg i.p.) worked out at 56%. The “Apomorphine-induced climbing (mean ± S.E.)” value in [2] (1 mg/kg i.p., control 72.9 ± 8.5, **p < 0.01) is 32.0 ± 8.6 sec/2 min. Moreover, in [2] (in vivo, mice), the “effect on apomorphine-induced climbing behavior / anti-dopamine activity (in words)” value is on record as “significantly inhibited the apomorphine-induced climbing behavior”. Moreover, in [3] (1 mg/kg i.p.), the “Percent inhibition of quipazine-induced head twitching” value worked out at 99%. The compound further showed a Quipazine-induced head twitching in [3] (1 mg/kg i.p., control 6.7 ± 0.8, **p < 0.05, ***p < 0.001) of 0.1 ± 0.1 number/2 min. Moreover, the “effect on quipazine-induced head twitching / anti-serotonine activity (in words)” value in [3] (in vivo, mice) is “significantly inhibited the apomorphine-induced climbing behavior and quipazine-induced head twitching”.
